Source: patent US20010006660A1, “LOW-RIGIDITY LIPOSOMAL FORMULATION” (priority 1999, published 2001)

What was measured:
[1] = Phase transition / destabilization temperature by differential scan calorimetry; format: physicochemical
Procedure: The formulations of liposomes were assessed for their ability to fuse with bacteria. The liposomes were prepared as described above and contained different lipid mixtures. These lipid mixtures were dipalmitoylphosphatidylcholine (DPPC): dimirystoylphosphatidylglycerol (DMPG), DPPC: soybean 1-α-phosphatidylinositol, sodium salt, (PI), and 1,2-di-o-hexadecyl-sn-glycero-3-phosphocholine (DHPC): DMPG. All lipid mixtures were used at ratios of 10:1. PI is negatively charged with a phase transition temperature (Tc) of 23° C., while DHPC is neutral with a Tc of 42° C. All three formulations have a Tc of about 29.5° C. […] The bacterial strain used was Pseudomonas aeruginosa strain 429.
Different tobramycin-encapsulated liposomal formulations were prepared according to Example 1 and analyzed by differential scan colorimetry. Using differential scan calorimetry, the temperatures of phase transition (TC) were calculated for the tobramycin-liposomal formulations listed in Table 2. All these formulations were then listed in vitro to assess the antibiotic kinetics of liberation from the liposomes. In addition, these formulations were tested in a non-infected mouse model as previously described (Omri et al. 1994, Antimicrob. Agents Chemother. 38:1090-1095) to assess the persistence of the liposomes in the lung.

[2] = tested on: Pseudomonas aeruginosa PA 508 (mucoid phenotype); experiment: Bactericidal activity in rat model of chronic pulmonary infection (agar beads); format: in vivo; settings: Sprague-Dawley rats
Procedure: To evaluate the bactericidal efficacy of a liposomal aminoglycoside formulation produced according to the present invention, male, pathogen-free, Sprague-Dawley rats weighing 175 to 225 g (Charles River) were used. Chronic infection in lungs was established by intratracheal administration of 5×10^5 CFU of Pseudomonas aeruginosa PA 508 (mucoid phenotype) prepared in agar beads. After 3 days, three doses (600 μg) of free or liposome-encapsulated tobramycin were given intratracheally at intervals of 16 h. The lipid mixture were DPPC:DMPG at a molar ratio of 10:1 (formula no 1) and DPPC:DMPC at a molar ration of 15:1 (formula no 2). Sixteen hours after the last treatment, the animals were sacrificed and the entire lungs were removed aseptically, weighed, and homogeneized as described previously for mice. Serial 10-fold dilutions of the homogenates in cold PBS were made and spread in triplicate on proteose peptone agar plates. Identification of P. aeruginosa was confirmed by specific cultures. CFU were counted after 24 hour incubations at 37° C. under 5% CO^2. Counts were expressed in log CFU per pair of lungs. PBS and PBS-liposomes were used as controls. A second experiment to study the bactericidal effect of the liposomal tobramycin preparation, produced according to the present invention, was carried out as for Table 4 with the following modifications: 1) liposomes were prepared with a 15:1 molar ratio of DPPC:DMPG (formula no. 3); and 2) only two doses of 240 μg of free or liposome-encapsulated tobramycin were administered to the rats.

[3] = tested on: Xanthomonas maltophilia; experiment: In vitro bactericidal activity, viable bacterial counts in proteose peptone; format: cell-based; settings: free tobramycin 3,12 μg/ml, liposomes entrapped tobramycin 3,08 μg/ml
Procedure: To evaluate the bactericidal efficacy of the liposonal tobramycin formulation produced according to the present invention (DPPC/DMPG), in vitro tests were performed against different clinical strains: […] To culture tubes containing proteose peptone (29 ml) a minimal number of 10^8 CFU of bacteria in logarithmic phase (1 ml) and of one of the following preparations (100 μl) were added at time zero: free tobramycin, control liposomes or PBS. Experiments were done in triplicate. At times 1, 3, 6, and 16 hours following the addition of antibiotic or controls, 2 ml of samples were collected and serial 10-fold dilutions were made and spread in triplicate on proteose peptone agar plates for gram negative strains and on […] for S. aureus. CFU were counted after 24-hour and 48-hourS incubations at 37° C. under 5% CO2. Counts were expressed in log CFU per ml of culture media.

[4] = tested on: Pseudomonas aeruginosa (strain 429); experiment: MIC of clinical strain; format: cell-based
[5] = tested on: Burkholderia cepacia (strain ID-28369); experiment: MIC of clinical strain; format: cell-based
[6] = tested on: Escherichia coli (strain 1061 mn 88); experiment: MIC of clinical strain; format: cell-based
[7] = tested on: Staphylococcus aureus (strain LSPQ 2499); experiment: MIC of clinical strain; format: cell-based
[8] = tested on: Xanthomonas maltophilia; experiment: MIC of clinical strain; format: cell-based; settings: Stenotrophomonas maltophilia
[9] = two doses of 240 μg intratracheally, '<significant count' = none or only rare cfu (0 to 6) on plates

| Molecule | phase transition temperature (Tc) [1] [°C] | log cfu/pair of lungs ([2]; three doses (600 μg) intratracheally at intervals of 16 h, '<significant count' = none or only rare cfu (0 to 4) on plates) | cfu/pair of lungs ([2]; three doses (600 μg) intratracheally at intervals of 16 h, '<significant count' = none or only rare cfu (0 to 4) on plates, counts <30 not statistically significant) | cfu/pair of lungs [2, 9] | log cfu/pair of lungs [2, 9] | Viable bacterial counts (cfu) ([3]; 0 h) | Viable bacterial counts (cfu) ([3]; 1 h after addition) | Viable bacterial counts (cfu) ([3]; 3 h after addition) | Viable bacterial counts (cfu) ([3]; 6 h after addition) | Viable bacterial counts (cfu) ([3]; 16 h after addition) | MIC [4] [µg/mL] | MIC [5] [µg/mL] | MIC [6] [µg/mL] | MIC [7] [µg/mL] | MIC [8] [µg/mL] |
| --- | --- | --- | --- | --- | --- | --- | --- | --- | --- | --- | --- | --- | --- | --- | --- |
| CCCCCCCCCCCCCCCCOC[C@H](COP(=O)([O-])OCC[N+](C)(C)C)OCCCCCCCCCCCCCCCC [DHPC, 1,2-di-o-hexadecyl-sn-glycero-3-phosphocholine] | 42 |  |  |  |  |  |  |  |  |  |  |  |  |  |  |
| NC[C@H]1O[C@H](O[C@H]2[C@H](O)[C@@H](O[C@H]3O[C@H](CO)[C@@H](O)[C@H](N)[C@H]3O)[C@H](N)C[C@@H]2N)[C@H](N)C[C@@H]1O [Free tobramycin, tobramycin] |  | 7.10 log cfu/pair of lungs | 1.25 × 10^7 cfu/pair of lungs | 1.07 × 10^6 cfu/pair of lungs | 6.03 log cfu/pair of lungs | 3,7 × 10^10 cfu | 3,00 × 10^12 cfu | 8,20 × 10^14 cfu | 7,80 × 10^16 cfu | 8,57 × 10^18 cfu | ≥ 60 | ≥ 27 | ≥ 5 | ≥ 9 | > 5 |
| soybean 1-α-phosphatidylinositol, sodium salt [PI] | 23 |  |  |  |  |  |  |  |  |  |  |  |  |  |  |
